Data on one molecule can be found in paper PMC9959349, “Discovery of the 3-Amino-1,2,4-triazine-Based Library as Selective PDK1 Inhibitors with Therapeutic Potential in Highly Aggressive Pancreatic Ductal Adenocarcinoma” (International Journal of Molecular Sciences, 2023).

Data set [1] deals with PSN-1 cells. The experiment in a line: Cellular oxygen consumption (Mito-ID Extracellular O2 Sensor Kit). It is filed as cell-based, human. Conditions: IC50 concentrations. As to the method: (§1) Cells were treated with DAP or representative compounds at IC50 concentrations and the changes in OCR and in the intracellular lactate formation were monitored.
PSN-1 cells (2 × 10^5) were seeded in a six-well plate in growth medium (4 mL). After 24 h, cells were incubated for 60 min with IC50 concentrations of tested compounds. Subsequently, oxygen consumption was assessed by Mito-ID® Extracellular O2 Sensor Kit according to manufacturer’s instructions. Fluorescence was measured using a Tecan microplate reader (Ex 340–400 nm, Em 630–680 nm).

For data set [2], the system named is PSN-1 cells. The experiment in a line: Cellular lactate production. The data set is classed as cell-based, human. Conditions: IC50 concentrations. The protocol:
as §1
PSN-1 cells (2 × 10^5) were seeded in a six-well plate in a growth medium (4 mL). After 24 h, cells were incubated for 60 min with IC50 concentrations of tested compounds. Changes in lactate production were assessed via colorimetric microplate assay (Lactate assay kit®, Merk, St. Louis, MO, USA) according to the manufacturer’s instructions. The intracellular lactate concentration was detected by measuring the absorbance of each well at 570 nm, using a Bio-Rad 680 microplate reader.

Data set [3] has as its system PSN-1 cells. In words: ROS production (CM-H2DCFDA). The data set is classed as cell-based, human. Conditions: 5 µM test compounds, antimycin 3 µM as positive control. The protocol: Consistently, tested compounds, although to different extents, were effective in reducing total cellular sulfhydryl contents in PSN-1-treated cells (Figure 9B).
The production of ROS was measured in PSN-1 cells (10^4 per well) grown for 24 h in a 96-well plate in RPMI medium without phenol red (Sigma Aldrich, Germany). Cells were then washed with PBS and loaded with 10 μM 5-(and-6)-chloromethyl-2′,7′-dichlorodihydrofluorescein diacetate acetylester (CM–H2DCFDA) (Molecular Probes-Invitrogen, Eugene, OR, USA) for 45 min, in the dark. Afterward, cells were washed with PBS and incubated with tested compounds. Fluorescence increase was estimated utilizing the wavelengths of 485 nm (excitation) and 527 nm (emission) in a VICTOR X3 (PerkinElmer, USA) plate reader. Antimycin (3 μM, Sigma Aldrich), a potent inhibitor of Complex III in the electron transport chain, was used as the positive control.

In data set [4] the test system is PSN-1 cells. The experiment in a line: TEM analysis of mitochondria. It is filed as cell-based, human. Conditions: 24 h, IC50 concentrations. The protocol:
In addition, TEM analyses were performed on PSN-1 cancer cells after 24 h treatment with IC50 concentrations of the representative compounds 5i and 6h.
About 10^6 PSN-1 cancer cells were seeded in 24-well plates and, after 24 h incubation, were treated with IC50 concentrations of tested compounds and incubated for an additional 24 h. Cells were then washed with cold PBS, harvested, and directly fixed with 1.5% glutaraldehyde buffer with 0.2 M sodium cacodylate, pH 7.4. After washing with buffer and postfixation with 1% OsO4 in 0.2 M cacodylate buffer, specimens were dehydrated and embedded in epoxy resin (Epon Araldite). Sagittal serial sections (1 μm) were counterstained with toluidine blue; thin sections (90 nm) were given contrast by staining with uranyl acetate and lead citrate. Micrographs were taken with a Hitachi H-600 electron microscope (Hitachi, Tokyo, Japan) operating at 75 kV. All photos were typeset in Corel Draw 11.

Data set [5] concerns caspase-3 and -8 in PSN-1 cells. The experiment in a line: Caspase-3 and -8 activity. The data set is classed as cell-based, human. Conditions: 24 h, IC50 doses. The protocol:
Apoptotic cell death can be triggered by a mitochondria-mediated or mitochondrial-independent pathways. In the […], caspase-8 and caspase-3 play an essential role. […] Staurosporine (STS), an alkaloid inducing apoptosis through caspase-3 and -8 activation was used as a positive control. […] Caspase-3 and -8 cleavage reached values similar to that induced by the well-known caspase-dependent apoptosis inducer staurosporine (Figure 10C).
Protein aliquots (100 μg) were stained at 37 °C for 60 min with fluorescent caspase-3 (N-acetyl-Asp-Glu-Val-Asp-AMC, AMC = 7-amino-4-methylcoumarin) or caspase-8 (Ac-Val-Glu-Thr-Asp-AMC) substrates. Substrate hydrolysis was measured after 60 min by monitoring the release of AMC using a a Tecan microplate reader (excitation at 370 nm, emission at 460 nm).

The test system of data set [6] is PSN-1 cells. The experiment in a line: Cell death induction, Hoechst 33258 staining. The data set is classed as cell-based, human. Conditions: 48 h, IC50 doses. The protocol:
As a last mechanistic evaluation, the ability of selected compounds 5i and 6h to induce cancer cell death by means of apoptosis, was also assessed.
PSN-1 cells were seeded into 8-well tissue-culture slides (BD Falcon, Bedford, MA, USA) at 5 × 10^4 cells/well (0.8 cm^2). […] Samples were examined at 5× and 40× magnification in a Zeiss LSM 800 confocal microscope using the Zeiss ZEN 2.3 software system (Zeiss, Oberkochen, Germany).

Data set [7] relates to S232 PDH E1 alpha protein (PDHA1) phosphorylation in LLC tissue. In words: PDH phosphorylation in mice tumor tissues (ELISA). It is filed as in vivo, C57BL mice. Conditions: LLC-bearing mice, 5i 20 mg kg−1 daily i.p., tumors collected day 15. The protocol:
As a proof-of-concept of PDK inhibitory activity of the newly developed 3-amino 1,2,4-triazines, we also assessed the phosphorylation level of S232-PDHA1 in tumor samples of animals treated with 5i. Tumors of treated animals collected on day 15 were homogenized and phopho-S232-PDHA1 levels were quantified by an ELISA Kit.
The phosphorylation level of S232 PDH E1 alpha protein (PDHA1) in LLC tissue homogenates was assessed by ELISA Kit (Abcam) following the manufacturer’s instructions. The amount of phosphorylated S232 PDHA1 protein was detected by measuring the absorbance of each well at 600 nm, using a Bio-Rad 680 microplate reader.

Data set [8] relates to murine Lewis Lung Carcinoma (LLC). In words: In vivo anticancer activity, LLC solid tumor model. Conditions: LLC-bearing C57BL mice, daily dosing days 7-14, evaluated day 15; 5i 20 mg kg−1 i.p., gemcitabine 60 mg kg−1, cisplatin 3 mg kg−1.
From the text: Seven days after tumor inoculation the tumor-bearing mice were randomized into vehicle control and treatment groups.
The LLC was implanted intramuscularly (i.m.) as a 2 × 10^6 cell inoculum into the right hind leg of 8-week-old male and female C57BL mice (24 ± 3 g body weight). After 7 days from tumor implantation (visible tumors), mice were randomly divided into 4 groups (8 animals per group) and subjected to daily i.p. administration. […] At day 15, animals were sacrificed, the legs were amputated at the proximal end of the femur, and the inhibition of tumor growth was determined from the difference in the weights of the tumor-bearing leg and the healthy leg of the animals, expressed as a percentage referenced to the control animals. Body weight was measured at day 0 and from day 7 onwards every 2 days and was taken as a parameter for systemic toxicity. All presented values are the means ± SD of no less than three measurements.
In data set [9] the test system is PSN-1 cells. The experiment in a line: 3D spheroid cytotoxicity, acid phosphatase (APH) assay, PSN-1. Conditions: read-out: IC50 ±S.D. PSN-1 (3D cytotoxicity); spheroids, 72 h, APH test.
Method: (§2) The PDAC cancer spheroids were treated with tested compounds for 72 h, and cell viability was assessed by means of the acid phosphatase (APH) assay (Table 3).
(§3) An APH-modified assay was used for determining cell viability in 3D spheroids, as previously described [61]. Briefly, the pre-seeded spheroids were treated with fresh medium containing the compound to be studied at the appropriate concentration (range 2.5–200 μM). Triplicate cultures were established for each treatment. After 72 h, each well was treated with 100 μL of the assay buffer (0.1 M sodium acetate, 0.1% Triton-X-100, supplemented with ImmunoPure p-nitrophenyl phosphate; Sigma Chemical Co., Ltd.) and, following 3 h of incubation, 10 μL of 1 M NaOH solution was added. […] The mean absorbance for each drug dose was expressed as a percentage of the control untreated well absorbance (T/C) and plotted vs. drug concentration. […] The evaluation was based on means from at least four independent experiments.
In data set [10] the test system is BxPC-3 cells. In words: 3D spheroid cytotoxicity, acid phosphatase (APH) assay, BxPC-3. Conditions: read-out: IC50 ±S.D. BxPC-3 (3D cytotoxicity); spheroids, 72 h, APH test.
Method: as §2, §3

On to `Cn1cc(-c2nnc(N)nc2-c2cn(C)c3ccc(F)cc23)c2ccccc21` [5i], for which the “cellular oxygen consumption (OCR)” value in [1] is on record as “more effective than DAP”. In addition, the lactate production result in data set [2] was “more potent than DAP”. The “ROS basal level production / hydrogen peroxide formation” value in [3] is given as “even higher than that provoked by antimycin”. In addition, the “mitochondrial morphology (TEM)” value in data set [4] is “dramatic swelling of the mitochondria”. Further, in [5], the “caspase-3 and -8 activation” value is “significantly activated”. Also, in data set [6], the “apoptosis induction (nuclear morphology)” value was “brightly stained nuclei and morphological features typical of cells undergoing apoptosis”. The “phospho-S232-PDHA1 level in tumor samples” value in [7] was “dramatically reduced PDH phosphorylation”. Also, the “reduction in tumor growth compared to the control group” value in data set [8] is reported as “about 80%”. For the same molecule, the IC50 in data set [9] was determined as 4.9 ± 0.8 µM; in [10], 34.1 ± 1.5 µM.
